Patent publication US20240173375A1, “CHEMOTACTIC AUTOPHAGY-INHIBITING PEPTIDE, COMPOSITIONS AND METHODS RELATED THERETO” (Biotempt B.V., priority 2021, published 2024)
Like-named read-outs stand apart in the source and are kept apart here. No end group written: not given here.

Legend:
autophagy = conditions: cited from earlier work; for inhibitory effects on autophagy: human cells (Meijer et al. 2015)
mTOR kinases = conditions: cited from earlier work; for activators of mTOR or inhibitors of autophagy, compared with other amino acids: alone or in combination, literature search November 2011
PKB (also known as AKT) = assay: FPR-signaling assay: PKB (AKT) phosphorylation in FPR-expressing cells stimulated with fMLP; format: cell-based
Source text: The pathway is governing the balance between proteolysis and proteogenesis regulating cytoskeleton changes affecting vascular permeability.

[1] = tested on: STAT3, JNK and P42/p44MAPK/ERK1,2 kinases; assay: FPR-signaling assay: STAT3, JNK and P42/p44MAPK/ERK1,2 phosphorylation in FPR-expressing cells; format: cell-based
Source text: (§1) Both AQGV (SEQ ID NO:11) peptide effects on p38 and PKB-mediated signalling last for the full 600 seconds tested whereas the other kinases tested were not affected throughout. […] The pathway is governing the balance between proteolysis and proteogenesis regulating cytoskeleton changes affecting vascular permeability. It is shown that an autophagy-inhibiting peptide reduces p38 MAPK kinase activated changes as well as reduces PI3K/AKT/mTOR activated induced changes in cell cytoskeleton reorganization affecting endothelial cell contraction and adverse vascular permeability. Autophagy-inhibiting peptide is useful and capable of addressing adverse vascular permeability, such as manifested by edema with vascular leakage, adverse leukocyte extravasation and hypotension, tissue injury and immune responses in human subjects.

p38 MAPK = assay: FPR-signaling assay: p38 MAPK phosphorylation in FPR-expressing cells stimulated with fMLP; format: cell-based
Source text: as §1

[2] = cited from earlier work
[3] = cited from earlier work; remark: listed apart in the source
[4] = 50 mg/kg twice daily i.p.; cited from earlier work
CXCR4 = target: T1, CXCR4 (Homo sapiens, UniProt P61073); conditions: cited from earlier work; for agonist behaviour in chemotaxis: CCRF-CEM cell line
T1 construct: In chemotaxis assays using the acute lymphoblastic leukemia cell line CCRF-CEM; endogenous in cells; host or cells: CCRF-CEM
T1 sequence (P61073 whole entry): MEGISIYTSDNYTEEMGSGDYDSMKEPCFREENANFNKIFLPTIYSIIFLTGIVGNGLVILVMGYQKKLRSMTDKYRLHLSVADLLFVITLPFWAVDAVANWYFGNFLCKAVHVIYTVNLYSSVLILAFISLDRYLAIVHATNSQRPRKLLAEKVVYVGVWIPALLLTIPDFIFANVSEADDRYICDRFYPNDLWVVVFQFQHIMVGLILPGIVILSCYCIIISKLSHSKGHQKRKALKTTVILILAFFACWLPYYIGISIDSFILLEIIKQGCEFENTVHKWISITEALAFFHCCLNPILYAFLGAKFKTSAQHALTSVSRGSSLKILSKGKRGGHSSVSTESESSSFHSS

neutrophil = conditions: cited from earlier work
[5] = Distribution and elimination of intravenously injected [14C]-AQGV from mice; format: in vivo
Method: The present study, which was conducted by TNO Biosciences, Utrechtseweg, Netherlands, was designed to provide data on the distribution and metabolism of [14C]-AQGV (SEQ ID NO:11) (Ala-Gln-[1-^14C]Gly-Val) in male CD-1 mice following a single intravenous dose of 50 mg/kg. To this end, mice were sacrificed at 10, 30 and 60 minutes, and 6 and 24 hours after administration of radiolabeled AQGV (SEQ ID NO:11), counts in various tissues were determined, and the radioactivity present in the urine and plasma were analyzed by HPLC.

[6] = cited from earlier work; remark: listed apart in the source
guinea pig skin = conditions: internal standard […]; cited from earlier work

## C[C@H](N)C(=O)O [L-Alanine]
autophagy
  Literature-based activity: autophagy: DOWN
  inhibitory effects on autophagy: most prominent
mTOR kinases
  activators of mTOR or inhibitors of autophagy, compared with other amino acids: more potent

## N=C(N)NCCC[C@H](N)C(=O)O [L-Arginine]
autophagy
  Literature-based activity: autophagy: DOWN
mTOR kinases
  activators of mTOR or inhibitors of autophagy, compared with other amino acids: more potent
  Literature-based activity: mTOR kinases: activate

## NC(=O)CC[C@H](N)C(=O)O [L-Glutamine]
autophagy
  Literature-based activity: autophagy: DOWN
  inhibitory effects on autophagy: most prominent
mTOR kinases
  activators of mTOR or inhibitors of autophagy, compared with other amino acids: more potent
  Literature-based activity: mTOR kinases: activate

## NCC(=O)O [L-Glycine]
autophagy
  Literature-based activity: autophagy: DOWN
mTOR kinases
  activators of mTOR or inhibitors of autophagy, compared with other amino acids: more potent

## N[C@@H](Cc1c[nH]cn1)C(=O)O [L-Histidine]
mTOR kinases
  Literature-based activity: mTOR kinases: down

## CC[C@H](C)[C@H](N)C(=O)O [L-Isoleucine]
autophagy
  Literature-based activity: autophagy: DOWN
mTOR kinases
  activators of mTOR or inhibitors of autophagy, compared with other amino acids: more potent
  Literature-based activity: mTOR kinases: activate

## CC(C)C[C@H](N)C(=O)O [L-Leucine]
autophagy
  Literature-based activity: autophagy: DOWN
  inhibitory effects on autophagy: most prominent
mTOR kinases
  activators of mTOR or inhibitors of autophagy, compared with other amino acids: more potent
  Literature-based activity: mTOR kinases: activate

## NCCCC[C@H](N)C(=O)O [L-Lysine]
mTOR kinases
  activators of mTOR or inhibitors of autophagy, compared with other amino acids: no or opposite effects
  Literature-based activity: mTOR kinases: down

## CSCC[C@H](N)C(=O)O [L-Methionine]
mTOR kinases
  activators of mTOR or inhibitors of autophagy, compared with other amino acids: no or opposite effects
  Literature-based activity: mTOR kinases: partial inhibit

## O=C(O)[C@@H]1CCCN1 [L-Proline]
autophagy
  inhibitory effects on autophagy: most prominent
mTOR kinases
  activators of mTOR or inhibitors of autophagy, compared with other amino acids: more potent
  Literature-based activity: mTOR kinases: activate

## C[C@@H](O)[C@H](N)C(=O)O [L-Threonine]
mTOR kinases
  activators of mTOR or inhibitors of autophagy, compared with other amino acids: no or opposite effects
  Literature-based activity: mTOR kinases: down

## CC(C)[C@H](N)C(=O)O [L-Valine]
mTOR kinases
  activators of mTOR or inhibitors of autophagy, compared with other amino acids: more potent
  Literature-based activity: mTOR kinases: activate

## CSCC[C@H](NC=O)C(=O)N[C@@H](CC(C)C)C(=O)N[C@@H](Cc1ccccc1)C(=O)O [fMLP, N-Formyl-L-methionyl-L-leucyl-L-phenylalanine, reference compound]
PKB (also known as AKT); FPR-expressing cells, p<0.05 at 600 seconds
  changes in phosphorylation status of PKB (AKT) on FPR-activation: significant
[1]; FPR-expressing cells
  changes in phosphorylation status of STAT3, JNK and P42/p44MAPK/ERK1,2 on FPR-activation: not (or not detectable)
p38 MAPK; FPR-expressing cells, p<0.05 from 60 to 600 seconds
  changes in phosphorylation status of p38 MAPK on FPR-activation: significant

## N[C@@H](CCC(=O)O)C(=O)O [glutamate, L-Glutamic Acid]
mTOR kinases
  activators of mTOR or inhibitors of autophagy, compared with other amino acids: no or opposite effects

## N[C@@H](Cc1ccccc1)C(=O)O [phenylalanine, L-Phenylalanine]
mTOR kinases
  activators of mTOR or inhibitors of autophagy, compared with other amino acids: no or opposite effects

## N[C@@H](CO)C(=O)O [serine, L-Serine]
mTOR kinases
  activators of mTOR or inhibitors of autophagy, compared with other amino acids: no or opposite effects

## N[C@@H](Cc1ccc(O)cc1)C(=O)O [tyrosine, L-Tyrosine]
mTOR kinases
  activators of mTOR or inhibitors of autophagy, compared with other amino acids: no or opposite effects

## AQGV (tetrapeptide)
[2]; 180 mg/kg (the highest dose)
  endotoxin induced increase in plasma levels of cytokines and adhesion molecule VCAM-1: significant attenuation
[2]; the highest dose
  fever and flu-like symptoms: reduced
PKB (also known as AKT); bi-phasic pattern, peptide at 20 ng/ml or 50 ng/ml, fMLP stimulation
  time at which peptide effects on PKB(AKT) follow after FPR-stimulation: 300 s
PKB (also known as AKT); full period tested
  duration of peptide effects on PKB-mediated signalling: 600 s
[3]; 20-50 mg/kg twice daily i.p. for four days, started 24 hours after IRI, dose dependent
  survival: markedly improved
[3]; four weeks after IRI, renal tissue
  CTGF up-regulation, marker of post-ischemic fibrosis: significantly less
[3]; mouse, in vivo
  tubular epithelial cell proliferation: significantly enhanced
[3]; two days after IRI
  acute tubular injury: diminished
[1]; throughout 600 seconds
  peptide effect on the other kinases tested: not affected
[4]
  renal function and allograft survival: improved
p38 MAPK; formyl-peptide related signaling
  effect on p38/p38-MK2-HSP27 and/or PI3K/AKT/mTOR pathways: attenuate
p38 MAPK; full period tested
  duration of peptide effects on p38-mediated signalling: 600 s
p38 MAPK; peptide at 20 ng/ml or 50 ng/ml, fMLP stimulation
  time at which peptide effects on p38 MAPK are detected after FPR-stimulation: 30 s

## ASLW (CXCR4 superagonist) [peptide agonist of CXCR4]
CXCR4
  agonist behaviour in chemotaxis: superagonist
  sensitivity to the CXCR4 antagonist AMD3100: insensitive

## Acetyl-proline-glycine-proline [AcPGP]
neutrophil; ELR+ CXC chemokines are functional at nanomolar levels
  concentration level at which the chemoattractant operates: micromolar level

## Ala-Gln-[1-^14C]Gly-Val (AQGV; also: 14C label at C1 of Gly ([1-14C]Gly)) [[14C]-AQGV]
[5]; 10 minutes after dose administration
  average total recovery of radioactivity: 83.2%
[5]; 30 minutes after dose administration
  average total recovery of radioactivity: 70.5%
[5]; 60 minutes after dose administration
  average total recovery of radioactivity: 62.9%
[5]; 6 hours after dose administration
  average total recovery of radioactivity: 52.6%
[5]; 24 hours after dose administration
  average total recovery of radioactivity: 50.8%
[5]; after 24 hours
  administered radioactivity excreted in feces: 2.6%
  administered radioactivity excreted in urine: 10.2%
[5]; blood, 10 minutes after single i.v. dose of 50 mg/kg
  radioactivity in the blood, amount if all counts were in intact peptide: 17.2 µg/g
[5]; kidneys, after 10 minutes
  concentration of "peptide" (radioactivity): 362 µg/g
[5]; kidneys, after 24 hours
  concentration of "peptide" (radioactivity): 61.9 µg/g
[5]; liver, after 10 minutes
  concentration of "peptide" (radioactivity): 105 µg/g
[5]; liver, after 24 hours
  concentration of "peptide" (radioactivity): 37.6 µg/g
[5]; lung, after 10 minutes
  concentration of "peptide" (radioactivity): 75.2 µg/g
[5]; mice
  time to full hydrolysis of the peptide after administration: 15 min
[5]; plasma, after 10 minutes, 50 mg/kg i.v.
  parent compound in plasma (HPLC): No parent compound could be detected
[5]; skin, after 24 hours
  concentration of "peptide" (radioactivity): 37.5 µg/g
[5]; spleen, after 10 minutes
  concentration of "peptide" (radioactivity): 74.7 µg/g
[5]; spleen, after 24 hours
  concentration of "peptide" (radioactivity): 39.3 µg/g
[5]; testis, after 10 minutes
  concentration of "peptide" (radioactivity): 85.7 µg/g
[5]; thymus, after 24 hours
  concentration of "peptide" (radioactivity): 43.1 µg/g
[5]; up to 24 hours
  administered radioactivity exhaled as volatiles, most likely 14C-CO2: About 50%
[5]; urine, 50 mg/kg i.v.
  parent compound in urine (HPLC): No parent compound was detected

## LQGV (tetrapeptide) [tetrapeptide, sister compound of AQGV]
[6]; 5 mg/kg bodyweight combined with fluid resuscitation and antibiotics, severe cecal ligation and puncture, 30% without peptide
  survival: 70%
[6]; 5 mg/kg bodyweight, first 5 days after moderate cecal ligation and puncture, 20% without
  survival: 50%
[6]; mouse, in vivo
  pulmonary nuclear factor-κB activation and pulmonary damage: reduced
[6]; peritoneal lavage fluid, lungs, to a lesser extent plasma
  cytokine and E-selectin levels: reduced

## Pro-Gly-Pro [PGP]
neutrophil; unacetylated versus acetylated peptide
  potency in evoking neutrophil chemotaxis, less than AcPGP: 4-7 fold

## RSVM (CXCR4 partial agonist) [peptide agonist of CXCR4]
CXCR4
  agonist behaviour in chemotaxis: partial agonist
  sensitivity to the CXCR4 antagonist AMD3100: insensitive

## acyl-YSFKPMPLaR (YSFKPMPLXR; N-acetyl; D-Ala; chemoattractant motif; MOD_RES (1)..(1) …ON; VARIANT (9)..(9) is D-ala) [conformationally constrained decapeptide agonist analog of C5a65-74]
Guinea pig skin
  potency relative to unconstrained analog […]: at least 10 fold
